Tests used:
Type in all cases: cell-based
[1] = tested on: platelet thrombus formation; assay: Flow measurement of platelet thrombus formation in collagen-coated microchip, device of FIG. 1; settings: blood collected in BD heparin blood collection tube, directly measured; 18 μL/min
Text: First, a method for analyzing the platelet thrombus formation capacity using a microchip A for analysis of a platelet thrombus is described below with reference to FIG. 1. In the example illustrated in FIG. 1, two channels are provided in parallel. However, this is merely an example, and, of course, the microchip may have a single channel, or may be in a different mode.
Reservoirs (blood storage containers) 106 and 116 are connected in an inverted position to a first inlet 104 and a second inlet 114, respectively, of the microchip A, and liquid transfer pumps 107, and 117 are connected to the reservoirs 106 and 116. To the liquid transfer pumps 107 and 117, pressure sensors 108 and 118 are connected. […]
As the liquid for the liquid transfer pumps 107 and 117, a liquid having a specific gravity lower than that of blood, such as mineral oil or […] is used. […] By measuring the inflow pressure of the liquid, the inflow pressure of the blood into each channel can be indirectly measured. […]
Thrombus formation by platelets occurs when the blood passes through the reaction sections, and increases in the inflow pressure due to this thrombus formation can be observed. By detecting the patterns of these pressure increases using the pressure sensors, and comparing the detected patterns, blood properties, that is, the platelet thrombus formation capacity, can be evaluated. […]

blood coagulation [2] = assay: ROTEM measurement of blood collected in BD sodium citrate tube with added reagents; settings: for blood coagulation (ROTEM): CTI 50 μg/mL, aprotinin 20 μg/mL
Experimental: (§1) To a blood sample collected in a sodium citrate blood collection tube manufactured by BD (containing 3.2% sodium citrate in an amount of 1/10 volume with respect to the blood), the following reagents were added to perform ROTEM measurement.
(2) Calcium chloride (final concentration, 12 mM) and CTI (final concentration, 50 μg/mL)
(3) Calcium chloride (final concentration, 12 mM), CTI (final concentration, 50 μg/mL), and aprotinin (final concentration, 20 μg/mL)
(4) Calcium chloride (final concentration, 12 mM), CTI (final concentration, 50 μg/mL), aprotinin (final concentration, 20 μg/mL), and danaparoid sodium (final concentration, 0.25 U/mL)
The results for (1), (2), (3), and (4) are shown from the left in this order (in the order of initiation of coagulation).
(1) STARTEM reagent (calcium chloride reagent)
(4) Calcium chloride (final concentration, 12 mM), CTI (final concentration, 50 μg/mL), aprotinin (final concentration, 20 μg/mL), and heparin sodium (Mochida Pharmaceutical Co., Ltd.; final concentration, 0.15 U/mL)

[3] = tested on: mixed white thrombus formation; assay: Thrombogenic capacity (white thrombus formation) in microchip coated with collagen and tissue factor, device of FIG. 2; settings: tube A; aprotinin 10 μg/mL added before blood collection; calcium chloride 12 mM and CTI 50 μg/mL; flow rate 10 μL/min
Experimental: A method for analyzing the mixed white thrombus formation capacity using a microchip B for analysis of a mixed white thrombus is described below with reference to FIG. 2. The example illustrated in FIG. 2 is a mode in which a blood coagulation inhibitor is added to blood that has passed through a channel. However, this is merely an example, and the microchip may be, of course, in a different mode.
A reservoir (blood storage container) 206 is connected in an inverted position to an inlet 204 of the microchip B, and a liquid transfer pump 207 is connected to the reservoir 206. To the liquid transfer pump 207, a pressure sensor 208 is connected.
As the liquid for a liquid transfer pump 207, a liquid having a specific gravity lower than that of blood, such as mineral oil or […] is used. This liquid is introduced using the liquid transfer pump 207 into a reservoir 206 in which blood is preliminarily filled, thereby overlaying the liquid on the blood. […] By measuring the inflow pressure of the liquid, the inflow pressure of the blood into the channel can be indirectly measured.
More specifically, mineral oil is injected from the liquid transfer pump 207 into the reservoir 206. […] By providing the narrow section, high-shear-stress-induced platelet aggregation can be monitored, and thrombus formation in atherothrombosis can be reproduced, which is preferred. […]

blood coagulation [4] = assay: ROTEM measurement, BD sodium citrate tube, calcium chloride, CTI, aprotinin, heparin sodium and prothrombin reagent (tissue factor); settings: (1) no hemostatic agent; (2) NovoSeven 2 μg/mL; (3) TFPI 10 μg/mL; HemosIL RecombiPlasTin 0.04%
Experimental: as §1
(1) Calcium chloride (final concentration, 12 mM), CTI (final concentration, 50 μg/mL), aprotinin (final concentration, 20 μg/mL), heparin sodium (final concentration, 0.15 U/mL), and a prothrombin reagent (addition of HemosIL RecombiPlasTin (15 μg/mL) to a final concentration of about 0.04%)
(2) Calcium chloride (final concentration, 12 mM), CTI (final concentration, 50 μg/mL), aprotinin (final concentration, 20 μg/mL), heparin sodium (final concentration, 0.15 U/mL), NovoSeven (final concentration, 2 μg/mL), and a prothrombin reagent (addition of HemosIL RecombiPlasTin to a final concentration of 0.04%) […]

blood coagulation [5] = assay: ROTEM measurement with STARTEM and EXTEM reagents (Comparative Example); settings: (1) alone, (2) NovoSeven 2 μg/mL, (3) TFPI 10 μg/mL
Experimental: as §1
(1) STARTEM reagent and EXTEM reagent (trademark; a test reagent containing tissue factor as a major component)
(2) STARTEM reagent, EXTEM reagent, and NovoSeven (Novo Nordisk Pharma Ltd.; final concentration, 2 μg/mL)
(3) STARTEM reagent, EXTEM reagent, and TFPI (final concentration, 10 μg/mL)

heparin
pressure increase due to platelet thrombus formation [1]: hardly observed

danaparoid sodium
blood coagulation (ROTEM) (blood coagulation [2]; danaparoid sodium 0.25 U/mL further added to calcium chloride 12 mM): complete suppression of blood coagulation

aprotinin
thrombogenic capacity in the presence of blood flow [3]: did not influence the data
initiation of coagulation (ROTEM) (blood coagulation [2]; aprotinin 20 μg/mL together with calcium chloride 12 mM and CTI 50 μg/mL): suppressed initiation of blood coagulation

Ac-FQSKpNVHVDGYFERLXAKL-NH2 [TFPI]
order of coagulation (ROTEM) (blood coagulation [4]): Coagulation occurred in the order of (2), (3), and (1)
ROTEM waveform versus reagent alone (blood coagulation [5]): showed the same waveform

heparin sodium
blood coagulation (ROTEM) (blood coagulation [2]; heparin sodium 0.15 U/mL further added to calcium chloride 12 mM): complete suppression of blood coagulation

From patent US11480559B2, “Blood collection tube, reagent, and method for analyzing blood characteristics using same” (FUJIMORI KOGYO CO., LTD., priority 2016, dated 2022)
